# Patent publication US9783833B2, “Biocatalytic methods to convert cyclohexane oxidation process waste streams to useful products” (INVISTA NORTH AMERICA S.A. R.L., priority 2011, dated 2017)
# B1: L7: Commercial lipase from Rhizomucor miehei (protein, UniProt P19515 95-363, looked up)
# Lipase: SIDGGIRAATSQEINELTYYTTLSANSYCRTVIPGATWDCIHCDATEDLKIIKTWSTLIYDTNAMVARGDSEKTIYIVFRGSSSIRNWIADLTFVPVSYPPVSGTKVHKGFLDSYGEVQNELVATVLDQFKQYPSYKVAVTGHSLGGATALLCALDLYQREEGLSSSNLFLYTQGQPRVGDPAFANYVVSTGIPYRRTVNERDIVPHLPPAAFGFLHAGEEYWITDNSPETVQVCTSDLETSDCSNSIVPFTSVLDHLSYFGINTGLCT
# B2: ChnC from Acinobacter: Lactone hydrolase, GenBank AAG10029.1, SEQ ID NO:1 (protein)
# chain: MNSTQSNTQFLFDLYANWSRRMQENPNMTIEDFRSMFDEWHQPTLEPEEVSYKFDVVAGVEGLWIYPKDADLSKVIIYTHGGGFAVGSSASHRKLVGHLAKYLGVSAFVVDYRRSPEHVFPAQIQDVTAVYKELLQRGFTAKNMLTAGDSAGGNLAISTVLNLRNEGIELPGAVIAFSPWLDMEHKGETLISNDATDALITVDLLKGMSQMFLGEHGDPANPLANPLKANYQVFPRLYINAGSVESLVDNATRLADIAKKEGVDVTLSVVDNMQHVFPFLAGRASEADQELAKIAQWFKA
# modifications: Acinetobacter sp. SE19
# B3: ChnC from Brevibacterium: Lactonohydrolase, GenBank AAK73167.2, SEQ ID NO:2 (protein, listed as Brevibacterium epidermidis)
# chain: MPTSPPTVSATPMTWSSRRTGRPTSASSASTSWAGPITSSPMSSRQHRRHLGVVASGLSFPNGMVITPDGKTLIVNELFGNKITAFDIGADGKLANKRDFANFGEIGDEPDVAKRIEAATIVPDGLALDAEGAVWIANTVNQNATRIAEGGQILDTVDTAPEGIFAVALGGDDGKTLFLCAAPDWDEGARSKAREGRMLATTVAVPHAGRP
# What was measured:
# [1] = test system: wild-type Yarrowia lipolytica; assay: Chemo-stat fermentation with cell retention using NVR as carbon and energy source; details: for Flux: steady state, 2% (v/v) NVR, ~215 mL/h, biomass dilution rate ~0.025 h^-1
# Text: The experimental set-up provided for a NVR Feed, Nutrient Feed and Base Feed (12% (v/v) NH3 (aq.)) that was filter sterilized into the fermenter via peristaltic pumps. Furthermore, a peristaltic pump provided the necessary cross-flow retentate flow rate to the hollow fibre membrane, a peristaltic pump allowed withdrawal of permeate and a peristaltic pump allowed for a biomass bleed from the fermenter.
# The chemo-stat's control philosophy entailed manual feed ratio control of the NVR Feed to Nutrient Feed rates, pH control via the Base Feed, temperature control via cooling water supply to the fermenter's jacket, fixed aeration & agitation rates via the respective feedback loops, fixed cross-flow rate via the retentate pump's variable speed drive, manual level control via the permeate pump and manual dilution rate control via the bleed pump.
# The initial charge minimal media was prepared (6.7 g/L yeast base without amino acids+(NH4)2SO4, 15 g/L glucose, 75 mg/L citric acid (Mr.=210 g/mol), 5.8 g/L sodium citrate (Mr.=294.1 g/mol), 10.7 g/L K2HPO4 (Mr.=174 g/mol), 5.2 g/L KH2PO4 (M=136.1 g/mol), and 2 mL/L antifoam) and the Nutrient Feed was prepared (6.7 g/L yeast base without amino acids+(NH4)2SO4, 75 mg/L citric acid (Mr.=210 g/mol), 5.8 g/L sodium citrate (Mr.=294.1 g/mol), 10.7 g/L K2HPO4 (Mr.=174 g/mol), 5.2 g/L KH2PO4 (M=136.1 g/mol), and 2 mL/L antifoam). The control parameters for the fermenter were set up (A1 and A2: 1 vvm aeration, pH 7.0, DO calibration at pH 7.0 and 1 vvm to 100% saturation, 28° C., 750 rpm initial agitation until glucose depletion, 1250 rpm final agitation after glucose depletion, manual antifoam).
# The fermenter was inoculated with a 10% (v/v) inoculum from a wild-type Yarrowia lipolytica shake flask that was grown overnight from a cryopreserved stock.
# [2] = test system: Y. lipolytica strains; assay: Growth of yeasts in the presence of lactones; format: cell-based, Yarrowia lipolytica; details: 0.1 to 1 g/L lactone; strains adapted to 3% NVR, especially Iss#137
# Text: FIG. 18 contains three line graphs showing the growth of selected yeasts in the presence of 0.1-1 g/L lactones (γ-butyrolactone, ε-caprolactone, and δ-valerolactone). Iss#125 is a S. cerevisiae control strain. Iss#134 is a Y. lipolytica strain isolated from plates after slow growth on 3% (v/v) NVR+YPD media. Iss#137 is a Y. lipolytica strain isolated from chemo-stat using synthetic NVR component feed.
# A cell retention chemo-stat was required to avoid cell wash-out. […] HPLC analysis confirmed that NVR contains a high concentration (ca. 92 g/L) of valerolactone.
# [3] = Hydrolysis of oligomers by cutinases (drop plates); format: biochemical; details: expressed in E. coli or Y. lipolytica; 12 hours at 28° C.
# Text: Cutinases from F. solani and A. oryzae were expressed in E. coli BL21 Star with His6 tags using the pET151/D-TOPO vector and the TOPO cloning system (Invitrogen) and purified on His-trap columns. The enzymes were also expressed as secreted extracellular proteins in a Y. lipolytica host strain deficient in the extracellular lipases LIP2, LIP7 & LIP8 (See, Example 7) and the supernatants concentrated 10 fold. Activity was confirmed using p-nitrophenyl butyrate as substrate, commercial lipase as a positive control and the concentrated soluble extract from E. coli transformed with the empty vector as negative control. […] (See, FIG. 26). This is further illustrated by the increase in monomeric acids, especially in the C-6 monomer components (hydroxycaproic acid, adipic acid, caproic acid) and valeric acid, released from the oligomers when cutinases (10 μl supernatant) were incubated with 4% NVR or 4% COP acid (v/v) (1 ml) overnight (See, FIGS. 27A and B).
# [4] = Agar plate clearance zone assay on COP acid; format: biochemical; details: lipases; 4% (v/v) COP acid, pH = 7; 1 U/well, 24 hours
# Text: (§1) Screening methods for hydrolysis of oligomeric esters in NVR and COP acid with commercially available lipases and esterases were verified using commercially available caprolactonediol (CPL) polymers with a range of molecular weights. Two screening methods were used to identify candidate enzymes, including an agar plate assay where radial enzyme diffusion produces clearance zones if the oligomer in the agar is hydrolyzed, and a biotransformation assay in which the hydrolysis of the polymer to monomers was assayed by HPLC with UV detection or LC-MS to quantify the concentrations of monomers. […]
# (§2) For plate assays, agar plates (1.5% agarose) containing 1-4% polycaprolactone (PCL), NVR or COP acid (v/v) were prepared with 50 mM citrate, Tris/HCl, or phosphate buffers to assay enzymes for hydrolytic activity at pH 3.5, 5, 7, or 8. […] Clearance zones were measured after 24 hours. […] FIG. 5 is a bar graph comparing the relative activity of esterases at different pHs as measured by the diameter of the clearance zone in the plate assay.
# [5] = Agar plate clearance zone assay on NVR; format: biochemical; details: lipases; 1% (v/v) NVR, pH = 7; 1 U/well, 24 hours
# Text: as §1, §2
# [6] = Plate assays, results summarised in words; format: biochemical; details: synthetic PCL diol, NVR and/or COP acid oligomers as named in the sentence; pH 5-8
# Protocol: For plate assays, agar plates (1.5% agarose) containing 1-4% polycaprolactone (PCL), NVR or COP acid (v/v) were prepared with 50 mM citrate, Tris/HCl, or phosphate buffers to assay enzymes for hydrolytic activity at pH 3.5, 5, 7, or 8. The molecular weight of PCL is 530 g/mol. Wells with a ca. 3 mm diameter were made in the plates, and enzyme added (1 U/well). Clearance zones were measured after 24 hours. Tables 3 and 4 show the results of the agar plate assay with commercial esterases and lipases, respectively, for hydrolysis of oligomers in NVR, COP acid and caprolactone polymers. […] FIG. 5 is a bar graph comparing the relative activity of esterases at different pHs as measured by the diameter of the clearance zone in the plate assay.
# See, Table 3, 4 and FIG. 4.
# [7] = Lactone hydrolase activity assay (LC/MS); format: biochemical; details: 4% v/v substrate, pH 7.0, 60 minutes
# Text: (§3) The lactone hydrolase from Acinobacter was expressed (See, FIG. 3) as a secreted protein in Y. lipolytica with all major extracellular lipases deleted (strain JMY1212, Δlip-2,7,8,11). The secreted hydrolase was concentrated 10 fold by centrifugal filtration of the supernatant (Amicon® Ultra Ultracel® 10K). This enzyme, as well as the lactone hydrolyzing enzymes from Brevibacterium epidermidis and Euglena gracilis were also expressed in E. coli BL21 Star™ (DE3) cells as His tagged proteins using the pET151 inducible expression vector, and the enzymes were purified using HisTrap™ FF columns (GE Healthcare), and concentrated as before by centrifugal filtration to 1 ml after elution from the columns. Activity assays were performed in phosphate buffer (50 mM, pH 7.0) and ZnCl2 (75 mM) containing the substrate (valerolactone, caprolactone, NVR, or COP acid) (4% v/v). Reactions were started by adding 50 μl concentrated enzyme and incubated with shaking for 60 minutes. Reactions were terminated by the addition of 500 μl acetonitrile and analyzed by LC/MS. The buffer control contained 5% glycerol in place of enzyme. To assess hydrolysis of oligomers in COP acid, 10 μl enzyme was added to agar plates (1.5% (w/v)) containing 4% (v/v) COP acid. All experiments were performed in triplicate. […]
# [8] = Lactone hydrolases incubated with NVR (LC/MS); format: biochemical; details: 4% v/v NVR, pH 7.0, 60 minutes
# Text: as §3
molecule,measurement,setting,value
O=C(O)CCCCO [5-hydroxyvaleric acid],Flux,[1],32 % of valerate uptake
O=C1CCCO1 [γ-butyrolactone],Flux,[1],0 % of valerate uptake
O=C1CCCCO1 [δ-valerolactone],effect of lactone on growth of Y. lipolytica strains,[2],inhibitory
CCCC(=O)O [butyric acid],steady state flux of catabolism relative to the catabolism of valeric acid,[1]; Table 6,7%
same,Flux,[1],7 % of valerate uptake
O=C(O)CCCCC(=O)O [adipic acid],steady state flux of catabolism relative to the catabolism of valeric acid,[1]; not told,18%
O=C(O)CCCC(=O)O [glutaric acid],Flux,[1],12 % of valerate uptake
"AoC: Aspergillus oryzae cutinase (EMBL D38311.1, UniProt P52956)",hydrolysis of oligomers in NVR and COP acid (clearance zones),[3],able to hydrolyze oligomers in NVR and COP acid
CCCCCC(=O)O [caproic acid],steady state flux of catabolism relative to the catabolism of valeric acid,[1]; Table 6,42%
same,Flux,[1],42 % of valerate uptake
O=C(O)CCCCCO [6-hydroxycaproic acid],Flux,[1],18 % of valerate uptake
B1,Substrate Clearance Zone Diameter,[4],2.2
same,Substrate Clearance Zone Diameter,[5],1.7
same,hydrolytic activity in plate assays (in words),[6],large clearance zones
B2,lactone hydrolyzing activity,[7],highest activity
same,hydrolysis of valerolactone in NVR,[8],hydrolyzed valerolactone
B3,hydrolysis of valerolactone in NVR,[8],hydrolyzed valerolactone
